# Data: US6964949B2, “Pharmaceutical compositions for promoting the growth of gram-positive bacilli and increasing the acidity in the vagina and the use thereof” (Shanghai Jiao Da Onlly Co., Ltd., priority 2000, dated 2005)
# Columns and labels:
# Type in all cases: cell-based
# Settings in all cases: 10.0% saccharide, 1.0% yeast extract, 1.6% xanthan gum (dextrin 0.5%, starch none), pH 6.2, candle jar, 37° C.
# Gram-negative cocci = assay: Experiment Example 2: comparison of saccharides, specimen culture, Gram smear
# Excerpt: (§1) • (1)The preparation of the compositions: Different saccharides were used respectively to prepare the following compositions according to the methods mentioned above: glucose, fructose, galactose, mannose, maltose, sucrose, lactose, lactulose, mycose, cellobiose, melibiose, melitose, malto-oligosaccharide, isomaltooligosaccharide and fructooligosaccharide, dextrin, starch, and glycogen: • A. 5% glucose, 1.0% yeast extract, 1.6% xanthan gum, pH adjusted to 6.2; • B. 5% fructose, 1.0% yeast extract, 1.6% xanthan gum, pH adjusted to 6.2; • C. 5% galactose, 1.0% yeast extract, 1.6% xanthan gum, pH adjusted to 6.2; • D. 5% mannose, 1.0% yeast extract, 1.6% xanthan gum, pH adjusted to 6.2; • E. 10.0% maltose, 1.0% yeast extract, 1.6% xanthan gum, pH adjusted to 6.2; • F. 10.0% sucrose, 1.0% yeast extract, 1.6% xanthan gum, pH adjusted to 6.2; • G. 10.0% lactose, 1.0% yeast extract, 1.6% xanthan gum, pH adjusted to 6.2; • H. 10.0% lactulose, 1.0% yeast extract, 1.6% xanthan gum, pH adjusted to 6.2; • I. 10.0% cellobiose, 1.0% yeast extract, 1.6% xanthan gum, pH adjusted to 6.2; • J. 10.0% mycose, 1.0% yeast extract, 1.6% xanthan gum, pH adjusted to 6.2; • K. 10.0% melibiose, 1.0% yeast extract, 1.6% xanthan gum, pH adjusted to 6.2; • L. 10.0% melitose, 1.0% yeast extract, 1.6% xanthan gum, pH adjusted to 6.2; • M. 10.0% maltooligosaccharide, 1.0% yeast extract, 1.6% xanthan gum, pH adjusted to 6.2; • N. 10.0% isomaltooligosaccharide, 1.0% yeast extract, 1.6% xanthan gum, pH adjusted to 6.2; • O. 10.0% fructooligosaccharide, 1.0% yeast extract, 1.6% xanthan gum, pH adjusted to 6.2; • P. 10.0% dextrin, 1.0% yeast extract, 0.5% xanthan gum, pH adjusted to 6.2; • Q. 10.0% starch, 1.0% yeast extract, pH adjusted to 6.2; • R. 10.0% glycogen, 1.0% yeast extract, 1.6% xanthan gum, pH adjusted to 6.2. • (2)The preparation of the test tubes: The compositions prepared above were filled into test tubes, with each tube containing 5 ml, sterilized, and kept until use for experiment. • (3) Specimen suspension: Vaginal secretion was taken from one of the patients suffering from typical bacterial vagmosis with a cotton swab, then the swab was washed in 2 ml sterilized Trypcase-soy Broth immediately, and thus the specimen suspension was ready. […] Then the tubes were placed in a candle jar and cultivated at 37° C. After 24 hours and 48 hours' culture, culture samples were taken respectively from each of the tubes, then the Gram smears of the samples were observed and the pH values of culture samples were tested. […] Meanwhile the pH values in most of the composition tubes decreased to different levels. […] And maltose and sucrose exert better effect in promoting the growth of Gram-positive bacilli and the production of acids than that of the other kinds of oligosaccharides.
# Gram-positive cocci = assay: as above
# Excerpt: as §1
# Gram-positive bacilli = assay: as above
# Excerpt: as §1
# Gram-negative bacilli = assay: as above
# Excerpt: as §1
# [1] = system: vaginal secretion specimen of a patient suffering from typical bacterial vaginosis; assay: Experiment Example 2: pH of culture samples (production of acids)
# Excerpt: as §1
Molecule,"Bacteria G − c (Gram-negative cocci), 24 hours-culture (Gram-negative cocci)","Bacteria G − c (Gram-negative cocci), 48 hours-culture (Gram-negative cocci)","Bacteria G + c (Gram-positive cocci), 24 hours-culture (Gram-positive cocci)","Bacteria G + c (Gram-positive cocci), 48 hours-culture (Gram-positive cocci)","Bacteria G + b (Gram-positive bacilli), 24 hours-culture (Gram-positive bacilli)","Bacteria G + b (Gram-positive bacilli), 48 hours-culture (Gram-positive bacilli)","Bacteria G − b (Gram-negative bacilli), 24 hours-culture (Gram-negative bacilli)","Bacteria G − b (Gram-negative bacilli), 48 hours-culture (Gram-negative bacilli)","pH, 24 hours-culture [1]","pH, 48 hours-culture [1]"
"OC[C@H]1O[C@H](OC[C@H]2O[C@H](O[C@]3(CO)O[C@H](CO)[C@@H](O)[C@@H]3O)[C@H](O)[C@@H](O)[C@@H]2O)[C@H](O)[C@@H](O)[C@H]1O [Melitose, melitose]","G − c, + (1-9 bacteria per field of vision under oil-immersion lens)","G − c, − (No or less than one bacterium per field of version under oil-immersion lens)","G + c, + (1-9 bacteria per field of vision under oil-immersion lens)","G + c, + (1-9 bacteria per field of vision under oil-immersion lens)","G + b, ++ (About 10-99 bacteria per field of vision under oil-immersion lens)","G + b, +++ (About 100 bacteria or more per field vision under oil-immersion lens, even uncountable)","G − b, + (1-9 bacteria per field of vision under oil-immersion lens)","G − b, ++ (About 10-99 bacteria per field of vision under oil-immersion lens)",6.7,5.8
"OC[C@H]1O[C@H](OCC2O[C@@H](O)[C@H](O)[C@@H](O)[C@@H]2O)[C@H](O)[C@@H](O)[C@H]1O (stereo partly drawn) [Melibiose, melibiose]","G − c, + (1-9 bacteria per field of vision under oil-immersion lens)","G − c, − (No or less than one bacterium per field of version under oil-immersion lens)","G + c, + (1-9 bacteria per field of vision under oil-immersion lens)","G + c, + (1-9 bacteria per field of vision under oil-immersion lens)","G + b, + (1-9 bacteria per field of vision under oil-immersion lens)","G + b, ++ (About 10-99 bacteria per field of vision under oil-immersion lens)","G − b, ++ (About 10-99 bacteria per field of vision under oil-immersion lens)","G − b, ++ (About 10-99 bacteria per field of vision under oil-immersion lens)",6.2,5.8
starch,"G − c, − (No or less than one bacterium per field of version under oil-immersion lens)","G − c, − (No or less than one bacterium per field of version under oil-immersion lens)","G + c, + (1-9 bacteria per field of vision under oil-immersion lens)","G + c, + (1-9 bacteria per field of vision under oil-immersion lens)","G + b, ++ (About 10-99 bacteria per field of vision under oil-immersion lens)","G + b, ++ (About 10-99 bacteria per field of vision under oil-immersion lens)","G − b, ++ (About 10-99 bacteria per field of vision under oil-immersion lens)","G − b, ++ (About 10-99 bacteria per field of vision under oil-immersion lens)",6.7,6.2
